{"source": "patent US20250380696A1", "about": "“METHOD FOR CONTROLLING UNDESIRED PLANTS AND PROMOTING GROWTH OF USEFUL PLANTS” (ISHIHARA SANGYO KAISHA, LTD., priority 2022, published 2025)", "type_in_all_cases": "in vivo", "key": {"[1]": {"tested_on": "waterhemp (Amaranthus tuberculatus)", "experiment": "(13) Herbicidal effect test, pot, spray at 5.0 to 8.0 leaf stage", "details": "4th day after spraying", "description": "(§1) [formula] • X: growth inhibition rate when treated with α (g/ha) of compound A, • Y: growth inhibition rate when treated with β (g/ha) of compound B, • E: growth inhibition rate expected when treated with α (g/ha) of compound A and β (g/ha) of compound B (expected value).\n(§2) Upland soil was put in a 1/1,000,000 hectare pot, and seeds of waterhemp (Amaranthus tuberculatus) were sown. When the waterhemp reached 5.0 to 8.0 leaf stage, a water-based suspension containing tiafenacil as the active ingredient, prepared by a conventional method for preparing a water-based suspension, and a wettable powder containing tri-allate as the active ingredient, prepared by a conventional method for preparing a wettable powder, an emulsifiable concentrate containing pethoxamid as the active ingredient (tradename: Successor 600, manufactured by Stähler Suisse SA) or an emulsifiable concentrate containing dimethenamid-P as the active ingredient (tradename: Fieldstar P emulsifiable concentrate, manufactured by BASF) were diluted with water (in an amount corresponding to 200 liter per hectare) containing 0.5 vol % of an agricultural spreader (tradename: Destiny HC, manufactured by Winfield Solutions, LLC.) and sprayed by a small spray gun (model: W-101-132G, manufactured by ANEST IWATA Corporation). On the 4th day after spraying, the state of growth of the waterhemp was visually observed, and the growth inhibition rate (%) was obtained in accordance with the evaluation standards described in the above (1) herbicidal effect test, and the results are shown in Table 13. Further, the expected value of the growth inhibition rate (%) was calculated in accordance with the Colby's formula described in the above (1) herbicidal effect test, and the results are also shown in Table 13."}, "[2]": {"tested_on": "horseweed (Conyza canadensis)", "experiment": "(15) Herbicidal effect test, pot, spray at diameter of 13 to 19 cm", "details": "3rd day after spraying", "description": "as §1\nas §2, with “horseweed (Conyza canadensis)” for “waterhemp (Amaranthus tuberculatus)”, “horseweed” for “waterhemp”, “a diameter of 13” for “5.0”, “19 cm,” for “8.0 leaf stage,”, “3rd” for “4th”, “15.” for “13.”"}, "[3]": {"tested_on": "wheat (cultivar: Norin 61)", "experiment": "(21) Plant growth promotion effect test (wheat), Italian ryegrass sown", "details": "22nd day after the sowing, above-ground part", "description": "Upland soil was put in a 1/1,000,000 hectare pot, and seeds of Italian ryegrass (Lolium multiflorum) were sown. When the Italian ryegrass reached 3.3 to 3.8 leaf stage, a water-based suspension containing tiafenacil as the active ingredient, prepared by a conventional method for preparing a water-based suspension, and a wettable powder containing metribuzin as the active ingredient (tradename: SENCOR wettable powder, manufactured by Bayer Crop Science) or water dispersible granules containing pyroxasulfone as the active ingredient (tradename: Sakura, manufactured by Bayer Crop Science) were diluted with water (in an amount corresponding to 200 liter per hectare) containing 0.5 vol % of an agricultural spreader (tradename: Destiny HC, manufactured by Winfield Solutions, LLC.) and sprayed by a small spray gun (model: W-101-132G, manufactured by ANEST IWATA Corporation). Seeds of wheat (cultivar: Norin 61, manufactured by Asahi Noen Seed Co., Ltd.) were sown in the pot after spraying. On the 22nd day after the sowing, the above-ground part of the wheat was reaped, and its weight was measured to obtain the raw weight."}, "[4]": {"tested_on": "forage corn (cultivar: SNOW DENT OTOHA)", "experiment": "(18) Plant growth promotion effect test (corn), Italian ryegrass sown", "details": "21st day after the sowing, above-ground part", "description": "Upland soil was put in a 1/1,000,000 hectare pot, and seeds of Italian ryegrass (Lolium multiflorum) were sown. When the Italian ryegrass reached 2.7 to 3.1 leaf stage, a water-based suspension containing tiafenacil as the active ingredient, prepared by a conventional method for preparing a water-based suspension, and an emulsifiable concentrate containing S-metolachlor as the active ingredient (tradename: Dual Gold, manufactured by Syngenta), a wettable powder containing metribuzin as the active ingredient (tradename: SENCOR wettable powder, manufactured by Bayer Crop Science) or water dispersible granules containing pyroxasulfone as the active ingredient (tradename: Sakura, manufactured by Bayer Crop Science) were diluted with water (in an amount corresponding to 200 liter per hectare) containing 0.5 vol % of an agricultural spreader (tradename: Destiny HC, manufactured by Winfield Solutions, LLC.) and sprayed by a small spray gun (model: W-101-132G, manufactured by ANEST IWATA Corporation). Seeds of forage corn (cultivar: SNOW DENT OTOHA, manufactured by SNOW BRAND SEED Co., Ltd.) were sown in the pot after spraying. On the 21st day after the sowing, the above-ground part of the forage corn was reaped, and its weight was measured to obtain the raw weight."}}}
{"smiles": "CCOCCN(C(=O)CCl)C(=C(C)C)c1ccccc1", "note": "[pethoxamid]", "values": [{"measurement": "Growth inhibition rate (%) Measured value", "setting": "[1]; Dose 93.8 g/ha", "result": 0, "unit": "%"}, {"measurement": "Growth inhibition rate (%) Measured value", "setting": "[1]; Dose 375 g/ha", "result": 0, "unit": "%"}, {"measurement": "Growth inhibition rate (%) Measured value", "setting": "[1]; Dose 750 g/ha", "result": 0, "unit": "%"}, {"measurement": "Growth inhibition rate (%) Measured value", "setting": "[2]; Dose 93.8 g/ha", "result": 0, "unit": "%"}, {"measurement": "Growth inhibition rate (%) Measured value", "setting": "[2]; Dose 375 g/ha", "result": 0, "unit": "%"}, {"measurement": "Growth inhibition rate (%) Measured value", "setting": "[2]; Dose 750 g/ha", "result": 0, "unit": "%"}]}
{"smiles": "CSc1nnc(C(C)(C)C)c(=O)n1N", "note": "[metribuzin]", "values": [{"measurement": "Raw weight (g) of wheat", "setting": "[3]; Dose 150 g/ha", "result": 2.5, "unit": "g"}, {"measurement": "Raw weight (g) of forage corn", "setting": "[4]; Dose 225 g/ha", "result": 4.7, "unit": "g"}, {"measurement": "Raw weight (g) of forage corn", "setting": "[4]; Dose 550 g/ha", "result": 5.6, "unit": "g"}]}
{"smiles": "COC(=O)CCNC(=O)C(C)Sc1cc(-n2c(=O)cc(C(F)(F)F)n(C)c2=O)c(F)cc1Cl", "note": "(stereo not shown) [tiafenacil]", "values": [{"measurement": "Raw weight (g) of wheat", "setting": "[3]; Dose 3 g/ha", "result": 2.3, "unit": "g"}, {"measurement": "Growth inhibition rate (%) Measured value", "setting": "[1]; Dose 6.25 g/ha", "result": 73, "unit": "%"}, {"measurement": "Raw weight (g) of forage corn", "setting": "[4]; Dose 6.25 g/ha", "result": 3.2, "unit": "g"}, {"measurement": "Growth inhibition rate (%) Measured value", "setting": "[2]; Dose 6.25 g/ha", "result": 17, "unit": "%"}]}
{"smiles": "Cn1nc(C(F)(F)F)c(CS(=O)(=O)C2=NOC(C)(C)C2)c1OC(F)F", "note": "[pyroxasulfone]", "values": [{"measurement": "Raw weight (g) of wheat", "setting": "[3]; Dose 37.5 g/ha", "result": 1.2, "unit": "g"}, {"measurement": "Raw weight (g) of forage corn", "setting": "[4]; Dose 7.5 g/ha", "result": 5.8, "unit": "g"}, {"measurement": "Raw weight (g) of forage corn", "setting": "[4]; Dose 125 g/ha", "result": 3.3, "unit": "g"}, {"measurement": "Raw weight (g) of forage corn", "setting": "[4]; Dose 250 g/ha", "result": 3.8, "unit": "g"}]}
{"smiles": "COC[C@H](C)N(C(=O)CCl)c1c(C)csc1C", "note": "[dimethenamid-P]", "values": [{"measurement": "Growth inhibition rate (%) Measured value", "setting": "[1]; Dose 60 g/ha", "result": 0, "unit": "%"}, {"measurement": "Growth inhibition rate (%) Measured value", "setting": "[1]; Dose 375 g/ha", "result": 0, "unit": "%"}, {"measurement": "Growth inhibition rate (%) Measured value", "setting": "[1]; Dose 750 g/ha", "result": 0, "unit": "%"}, {"measurement": "Growth inhibition rate (%) Measured value", "setting": "[2]; Dose 60 g/ha", "result": 0, "unit": "%"}, {"measurement": "Growth inhibition rate (%) Measured value", "setting": "[2]; Dose 375 g/ha", "result": 0, "unit": "%"}, {"measurement": "Growth inhibition rate (%) Measured value", "setting": "[2]; Dose 750 g/ha", "result": 0, "unit": "%"}]}
{"smiles": "CC(C)N(C(=O)SCC(Cl)=C(Cl)Cl)C(C)C", "note": "[tri-allate]", "values": [{"measurement": "inhibition at 75 g/ha", "setting": "[1]; Amaranthus tuberculatus, Dose 75 g/ha, read-out: Growth inhibition rate (%) Measured value", "result": 0, "unit": "%"}, {"measurement": "inhibition at 625 g/ha", "setting": "[1]; Amaranthus tuberculatus, Dose 625 g/ha, read-out: Growth inhibition rate (%) Measured value", "result": 0, "unit": "%"}, {"measurement": "inhibition at 1250 g/ha", "setting": "[1]; Amaranthus tuberculatus, Dose 1250 g/ha, read-out: Growth inhibition rate (%) Measured value", "result": 0, "unit": "%"}, {"measurement": "inhibition at 75 g/ha", "setting": "[2]; Erigeron canadensis, Dose 75 g/ha, read-out: Growth inhibition rate (%) Measured value", "result": 0, "unit": "%"}, {"measurement": "inhibition at 625 g/ha", "setting": "[2]; Erigeron canadensis, Dose 625 g/ha, read-out: Growth inhibition rate (%) Measured value", "result": 5, "unit": "%"}, {"measurement": "inhibition at 1250 g/ha", "setting": "[2]; Erigeron canadensis, Dose 1250 g/ha, read-out: Growth inhibition rate (%) Measured value", "result": 3, "unit": "%"}]}
{"smiles": "CCc1cccc(C)c1N(C(=O)CCl)[C@@H](C)COC", "note": "[S-metolachlor]", "values": [{"measurement": "Raw weight (g) of forage corn", "setting": "[4]; Dose 7.5 g/ha", "result": 3.5, "unit": "g"}, {"measurement": "Raw weight (g) of forage corn", "setting": "[4]; Dose 750 g/ha", "result": 3.1, "unit": "g"}]}
